Values quoted from earlier work in patent US20250082624A1, “METHODS OF TREATING COGNITIVE IMPAIRMENT” (NeuroTherapia, Inc., priority 2023, published 2025).

Tested on: rats
Details: intracerebroventricular administration; cited from earlier work

Cc1c(C(=O)c2cccc3ccccc23)c2cccc3c2n1[C@H](CN1CCOCC1)CO3 [WIN 55,212-2]
Aβ-induced microglial activation, cognitive impairment, loss of neuronal markers: prevented A13-induced microglial activation, cognitive impairment, and loss of neuronal markers
